Assay results taken from US11918770B2, “Implants for localized drug delivery and methods of use thereof” (The Regents of the University of California, priority 2014, dated 2024).
“Also recorded” adds a separate entry of the source.

Tests used:
[1] = Drug release from loaded Silastic tubing in culture media (LC-MS/MS); type: physicochemical; conditions: for drug transfer from Silastic tubing: Silastic tubing depot approach
Procedure: (§1) Each sealed (10 cm) tube was immersed into a 10 cm culture tube containing 5 mL culture media (Dulbecco's Modified Eagle's medium (DMEM)+10% fetal bovine serum (FBS)+penicillin and streptomycin) approximating interstitial tissue surrounding the breast tissue. These tubes were set on a rocker in an incubator at 37° C. for 1, 2, 5, 10, 15, 21 and 30 days. After each time point media was collected and stored at −80° C. for further analysis for western blotting, viability/proliferation assay by MTS (3-(4,5-dimethylthiazol-2-yl)-5-(3-carboxymethoxyphenyl)-2-(4-sulfophenyl)-2H-tetrazolium) and quantitation by liquid chromatography-tandem mass spectrometry (LC-MS/MS). Additional iteration was to perform repeated washes on the same sealed tube and collect the culture medium at days 1, 2, 5, 10, 15, 21, and 30.
(§2) A validated LC-MS/MS method was used for quantitation of fulvestrant. Sample was prepared by liquid-liquid extraction procedures with n-hexane-isopropanol (90:10, v/v). Extracts were concentrated (using a nitrogen stream at room temperature) and […] with 2 volumes of mobile phase buffer, and injected into a Sciex ultra performance liquid chromatorgraphy (UPLC) coupled with a Sciex API 5000™ triple quadrupole mass spectrometer. Data was acquired and analyzed by Analyst® MS software.
Media was harvested semi-weekly (84 hrs).

[2] = system: progesterone receptor (PgR) mRNA; assay: Progesterone receptor mRNA by qRT-PCR in MCF7 cells treated with medium containing released E2; type: cell-based; conditions: estradiol released from Silastic tubing into culture medium, MCF7 cells treated 24 hours
Procedure: The effect of estradiol released from Silastic® tubing loaded with estradiol and placed in culture medium was monitored, using conditions similar to that described in Example 2.
FIG. 23: Drug (E2) was loaded into 3 independent silastic tubes, dried, and sealed before incubating them in tissue culture medium for the indicated number of days. The tubes were then removed and MCF7 cells were treated with the medium. For the E2 experiment, MCF7 cells were first depleted of E2 by growing for 48 hours in FBS stripped media. Then, after 24 hours of treatment with media containing released E2, cells were harvested and progesterone receptor mRNA was quantified by quantitative real-time (qRT)-polymerase chain reaction (PCR) using TaqMan® probes from Applied Biosystems. As controls, MCF7 cells untreated and treated directly with 10 nM E2 were run.

[3] = distribution coefficient between water and octanol; cited from earlier work
[4] = target: T1, estrogen receptor (ER) (Homo sapiens, UniProt P03372); assay: Western blot for ER and PR expression in MCF7 cells; type: cell-based
T1 sequence (P03372 1-595): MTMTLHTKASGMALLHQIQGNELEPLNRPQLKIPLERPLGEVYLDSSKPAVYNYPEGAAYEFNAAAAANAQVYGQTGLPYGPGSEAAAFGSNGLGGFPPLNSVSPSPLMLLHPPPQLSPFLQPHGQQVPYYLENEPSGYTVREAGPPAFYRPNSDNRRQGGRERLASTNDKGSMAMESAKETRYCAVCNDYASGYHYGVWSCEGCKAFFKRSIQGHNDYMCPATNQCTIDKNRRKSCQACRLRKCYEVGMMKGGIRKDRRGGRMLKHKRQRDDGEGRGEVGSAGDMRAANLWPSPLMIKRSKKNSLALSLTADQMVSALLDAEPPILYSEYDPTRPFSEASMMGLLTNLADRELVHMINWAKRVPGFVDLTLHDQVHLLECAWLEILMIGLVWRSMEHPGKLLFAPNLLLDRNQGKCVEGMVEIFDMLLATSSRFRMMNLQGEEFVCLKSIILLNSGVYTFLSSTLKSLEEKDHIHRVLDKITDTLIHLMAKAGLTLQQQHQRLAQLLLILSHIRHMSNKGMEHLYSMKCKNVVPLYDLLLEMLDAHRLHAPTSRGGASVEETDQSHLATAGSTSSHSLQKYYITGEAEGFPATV
Procedure: as §1
(§3) MCF-7 culture were propagated and seeded in 6 cm dishes at 300,000 cells per dish and allowed to adhere overnight as a monolayer. […] The drug concentrations and biological effects of the drug eluted from specific tubes were evaluated by Mass spectroscopy, Western Blot analysis and antiproliferative methods after exposure for 3 days.
(§4) The medium was then used to culture MCF7 cells for 72 h, and the cells were assayed for proliferation by MTS assay (Panel A) and harvested for protein and western blotted for ER and PR expression (Panel B).

[5] = Fulvestrant level in blood and mammary tissue of mice with Silastic implant; type: in vivo, CD-1 female mice; conditions: 2 cm RX50 silastic tubing, 0.076 mg/cm dry fulvestrant, adjacent to inguinal mammary fat pad
Procedure: (§5) Mice were monitored for body weight loss, activity, adequate grooming, and general behavior daily for the first week, followed by alternate days up to […]. Mice were euthanized and blood and organs were collected after 1, 2, 3, 4, 6 and 9 weeks (FIGS. 21 and 22).
Blood from anaesthetized CD-1 female mice were collected in Vacutainer® tubes coated with K2 ethylenediaminetetraacetic acid (EDTA) via cardiac puncture. Plasma was separated by centrifugation at 6,000×g for 10 minutes and stored at −80° C. […] Harvested tissue was homogenized in saline on ice and then subjected to liquid-liquid phase extraction and evaluated for their levels of fulvestrant by LC-MS/MS as described above.
After the indicated number of weeks the mice were euthanized and tissue was harvested.

[6] = Visual examination of organs for overt pathology in implanted mice; type: in vivo, CD-1 female mice; conditions: Silastic depot with dry fulvestrant implanted subcutaneously, 9 week period
From the text: as §5

[7] = Drug release from loaded Silastic tubing in saline (LC-MS/MS); type: physicochemical
Procedure: Every 84 hours the saline was collected and replaced with fresh saline.
as §2
Every 84 hours, saline was collected and replaced with fresh saline. Fulvestrant was quantified in collected saline by liquid chromatography mass spectrometry.

[8] = in 10% ethanol, 10% benzyl alcohol, 15% benzyl benzoate, and to 100% with castor oil (Faslodex®); cited from earlier work
[9] = system: MCF7 ER-positive breast cancer cells; assay: MTS viability/proliferation assay of MCF7 cells; type: cell-based
Procedure: as §1, §3
At the end of the exposure, medium was replaced by MTS dye diluted (200 μL per well) in culture medium and incubated for up to 2 hours at 37° C. Optical density (490 nm) at the end of the time points (1, 1.5 and 2 hours) was measure and plotted as a ratio of absorbance (day/untreated).
Media containing tubing released drug at respective times was then added to cultured MCF7 ER-positive breast cancer cells and grown for 72 hours.
as §4

[10] = MCF7 cells treated directly with 100 nM fulvestrant (positive control)

4-hydroxytamoxifen
drug transfer from Silastic tubing [1]: amenable to drug transfer

C[C@]12CC[C@@H]3c4ccc(O)cc4CC[C@H]3[C@@H]1CC[C@@H]2O [estradiol]
duration of sustained increase in progesterone receptor (PgR) mRNA expression [2]: up to 15 days

C[C@]12CC[C@@H]3c4ccc(O)cc4C[C@@H](CCCCCCCCC[S+]([O-])CCCC(F)(F)C(F)(F)F)[C@H]3[C@@H]1CC[C@@H]2O (stereo partly shown) [fulvestrant]
log D [3]: around 8.47 | ER expression [4, 10]: sufficient to down regulate ER expression | duration of consistent weekly fulvestrant release, as measured by ER and PR down regulation ([4]; weekly release from Silastic tubing, cell culture models): more than 4 weeks | fulvestrant in mammary tissue ([5]; all mice): significant fulvestrant was detectable | fulvestrant in blood ([5]; weeks 1-9, all but one mouse at week 4): < 4 nM | duration of sustained release into culture medium ([1]; fulvestrant loaded Silastic tubing, media harvested semi-weekly (84 hrs), LC-MS/MS): up to 22 weeks | overt pathology of organs (color, size, general condition) [6]: none | extrapolated duration of release ([7]; based on rate of release and amount of fulvestrant in the device): exceeds 10 years | duration of steady release ([7]; saline, 37 C): exceeding 7 months | rate of fulvestrant released ([7]; saline, 37 C, after 5 weeks, average): 7.77 ng/cm tubing*day | solubility [8]: up to 50 mg/mL | cell growth [9, 10]: arrest cell growth | tube equilibration time sufficient for growth inhibition and ER down regulation comparable to 100 nM fulvestrant ([9]; Silastic tubing 9 cm, 0.076 mg/cm dry fulvestrant, in culture media): 2 to 5 days | antiproliferative effects ([9]; fulvestrant added directly, concentration curves 10-50 nM and up to 10 μM, 72 hours): sufficient to block estrogen receptor signaling and proliferation | growth inhibition and estrogen receptor down regulation ([9]; medium with fulvestrant released from Silastic tubing (0.076 mg/cm dry fulvestrant), MCF7 cells 72 h): comparable to cells directly treated with fulvestrant (100 nM); also recorded: sufficient to abrogate ER signaling and reduce cell proliferation

O=C(c1ccc(OCCN2CCCCC2)cc1)c1c(-c2ccc(O)cc2)sc2cc(O)ccc12 [raloxifene]
log D [3]: around 5.406 | drug transfer from Silastic tubing [1]: amenable to drug transfer
